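Grown in 96-well plates, cells were treated for 48 hours with each compound at five concentrations. Insufficient inhibition: endpoint recorded as highest concentration tested. Here, GI50 denotes the concentration required for 50% inhibition of growth. TGI denotes the concentration required for complete inhibition of growth.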 Bounds are passed on as bounds.

Some test systems named below: 786-0 renal; HCC-2998 colon; HCT-15 colon; HL-60(TB) leukemia; HOP-62 NSCLC; MALME-3M melanoma; NCI-H226 lung; OVCAR-4 ovarian; RPMI-8226 leukemia; U251 CNS.
Assay in all cases: NCI-60 cell line screen, 48 h

Turning to `COC1=CC(c2ccc[nH]2)=N/C1=C\c1[nH]c(C)c(C(=O)CCCCC(=O)Nc2ccccc2)c1C`, the GI50 in the experiment on 786-0 renal is 4.79 µM; in the experiment on HCC-2998 colon it was 3.78 µM; in the experiment with HCT-15 colon it was 0.679 µM; in the experiment with HL-60(TB) leukemia, 1.84 µM; with HOP-62 NSCLC it was 2.98 µM; with MALME-3M melanoma, 1.28 µM. The GI50 in the experiment with NCI-H226 lung was 1.85 µM; in the experiment with OVCAR-4 ovarian it was 1.56 µM; in the experiment with RPMI-8226 leukemia, 0.142 µM; with U251 CNS it was 1.29 µM. The TGI in the experiment with 786-0 renal stood at 12.6 µM; in the experiment on HCC-2998 colon, 16.7 µM; in the experiment with HCT-15 colon, 2.44 µM; with HL-60(TB) leukemia, 5.37 µM; with HOP-62 NSCLC, 9.7 µM; in the experiment on MALME-3M melanoma, 3.16 µM. For the same compound, the TGI in the experiment with NCI-H226 lung worked out at 6.11 µM; with OVCAR-4 ovarian it was 3.96 µM; with RPMI-8226 leukemia, 1.82 µM; in the experiment with U251 CNS, 2.56 µM.

Consider `COC(=O)C1=C(C(=O)OC)C23C=C(C)C1C2=C(C)C1(CC1)[C@@](C)(O)C3=O` (stereo not given in full), for which the GI50 with 786-0 renal was 0.323 µM; in the experiment on HCC-2998 colon, 0.245 µM; in the experiment with HCT-15 colon, 0.403 µM; in the experiment on HL-60(TB) leukemia, 1.55 µM; in the experiment with HOP-62 NSCLC, 0.267 µM; in the experiment with MALME-3M melanoma, 0.449 µM. Also, the GI50 was 0.438 µM in the experiment with NCI-H226 lung, 0.484 µM in the experiment with OVCAR-4 ovarian, 7.36 µM in the experiment on RPMI-8226 leukemia and 0.311 µM with U251 CNS. Besides, the TGI in the experiment with 786-0 renal was 3.05 µM; in the experiment on HCC-2998 colon it was 0.693 µM; with HCT-15 colon, 12.8 µM; in the experiment with HL-60(TB) leukemia, 15.9 µM; with HOP-62 NSCLC, 0.754 µM; with MALME-3M melanoma it was 2.16 µM. Moreover, the TGI with NCI-H226 lung is 3.07 µM; in the experiment with OVCAR-4 ovarian it was 6.43 µM; in the experiment with RPMI-8226 leukemia it was 52.6 µM; with U251 CNS, over 42.8 µM.

On to `CCOC(=O)/C(=C/c1ccc(C#N)cc1)N(CC)CC`, for which the TGI in the experiment with 786-0 renal, in the experiment on HCC-2998 colon, in the experiment with HCT-15 colon, in the experiment with HL-60(TB) leukemia, in the experiment with HOP-62 NSCLC and in the experiment with MALME-3M melanoma was over 100 µM in each case. The TGI in the experiment on NCI-H226 lung, in the experiment with OVCAR-4 ovarian, in the experiment with RPMI-8226 leukemia and in the experiment with U251 CNS was over 100 µM throughout.

In the case of `O=c1cnn2c(n1)sc1ccc3ccccc3c12`, the TGI with 786-0 renal, in the experiment on HCC-2998 colon, with HCT-15 colon, with HL-60(TB) leukemia, with HOP-62 NSCLC and in the experiment with MALME-3M melanoma was over 100 µM in each case. The TGI in the experiment with NCI-H226 lung, with OVCAR-4 ovarian, in the experiment on RPMI-8226 leukemia and in the experiment on U251 CNS was over 100 µM in each case.

As for `COc1ccc2c(c1)OC[C@@H]1c3cc4c(cc3O[C@H]21)OCO4`, the TGI in the experiment on 786-0 renal, in the experiment on HCC-2998 colon, with HCT-15 colon, with HL-60(TB) leukemia, in the experiment with HOP-62 NSCLC and in the experiment with MALME-3M melanoma was over 100 µM throughout. Further, the TGI in the experiment on NCI-H226 lung, with OVCAR-4 ovarian, with RPMI-8226 leukemia and with U251 CNS was over 100 µM each time.

As to `COC(=O)[C@]1(C)CCC[C@@]2(C)C1CCC1=CC3(C(C)C)CCC12OO3` (stereo not given in full), the TGI in the experiment on 786-0 renal is over 100 µM; with HCC-2998 colon, over 100 µM; in the experiment with HCT-15 colon, over 100 µM; with HL-60(TB) leukemia it was 37.8 µM; with HOP-62 NSCLC, over 100 µM; with MALME-3M melanoma it was over 100 µM. The TGI in the experiment on NCI-H226 lung, in the experiment on OVCAR-4 ovarian, in the experiment with RPMI-8226 leukemia and in the experiment with U251 CNS was over 100 µM each time.

`CC(C)=CC(=O)Cc1nc2cc(C)c(C)cc2[nH]c1=O`: the TGI in the experiment on 786-0 renal, in the experiment on HCC-2998 colon, in the experiment with HCT-15 colon, with HL-60(TB) leukemia, in the experiment on HOP-62 NSCLC and in the experiment with MALME-3M melanoma was over 100 µM in each case. Besides, the TGI in the experiment with NCI-H226 lung, with OVCAR-4 ovarian, in the experiment on RPMI-8226 leukemia and in the experiment on U251 CNS was over 100 µM each time.

Regarding `CCCN(CCC)c1ccc(/C=N/NC(=O)c2cccnc2)c(Cl)c1`, the GI50 in the experiment with 786-0 renal was 11.6 µM; in the experiment with HCC-2998 colon, 7.74 µM; with HCT-15 colon, 7.87 µM; with HL-60(TB) leukemia, 4.91 µM; in the experiment with HOP-62 NSCLC it was 10.3 µM; in the experiment with MALME-3M melanoma it was 15 µM. The GI50 was 0.241 µM in the experiment on NCI-H226 lung, 2.32 µM in the experiment on OVCAR-4 ovarian, 15.7 µM in the experiment with RPMI-8226 leukemia and 4.78 µM in the experiment with U251 CNS. The TGI in the experiment with 786-0 renal is 29.1 µM; in the experiment on HCC-2998 colon it was 25.7 µM; with HCT-15 colon, 34.4 µM; in the experiment on HL-60(TB) leukemia it was 32.4 µM; in the experiment on HOP-62 NSCLC, 28.6 µM; with MALME-3M melanoma, 36.1 µM. Besides, the TGI in the experiment on NCI-H226 lung was determined as 0.707 µM; in the experiment with OVCAR-4 ovarian, 35.7 µM; with RPMI-8226 leukemia, 69.9 µM; with U251 CNS it was 20.6 µM.

Consider `CCCc1nc2c(C)cc(-c3nc4ccccc4n3C)cc2n1Cc1ccc(-c2ccccc2C(=O)O)cc1`, for which the GI50 in the experiment on 786-0 renal is 41.4 µM; in the experiment with HCC-2998 colon, 51.9 µM; with HCT-15 colon it was 20.3 µM; with HL-60(TB) leukemia, 28.8 µM; in the experiment with HOP-62 NSCLC, 43.5 µM; in the experiment on MALME-3M melanoma it was 45.9 µM. Besides, the GI50 in the experiment on NCI-H226 lung is 32.4 µM; in the experiment on OVCAR-4 ovarian it was 50.6 µM; with RPMI-8226 leukemia, 17.3 µM; with U251 CNS, 20.2 µM. For the same compound, the TGI in the experiment with 786-0 renal is over 100 µM; in the experiment with HCC-2998 colon, over 100 µM; in the experiment on HCT-15 colon, over 100 µM; in the experiment with HL-60(TB) leukemia it was 77.4 µM; in the experiment on HOP-62 NSCLC, over 100 µM; in the experiment with MALME-3M melanoma, over 100 µM. Also, the TGI with NCI-H226 lung is over 100 µM; in the experiment on OVCAR-4 ovarian, over 100 µM; in the experiment on RPMI-8226 leukemia it was 95.9 µM; with U251 CNS, 51.8 µM.

Regarding `Cc1ccc(C)c(-c2csc(Nc3ccc(C)c(C)c3)n2)c1`, the GI50 was 39.5 µM in the experiment on 786-0 renal; over 100 µM with HCC-2998 colon; 4.08 µM in the experiment on HCT-15 colon; over 100 µM in the experiment with HL-60(TB) leukemia; 36.8 µM with HOP-62 NSCLC; over 100 µM in the experiment with MALME-3M melanoma. In addition, the GI50 was over 100 µM in the experiment on NCI-H226 lung, 48.3 µM in the experiment with OVCAR-4 ovarian, over 100 µM in the experiment on RPMI-8226 leukemia and 52.9 µM in the experiment on U251 CNS. For the same compound, the TGI in the experiment on 786-0 renal, in the experiment with HCC-2998 colon, with HCT-15 colon, in the experiment with HL-60(TB) leukemia, with HOP-62 NSCLC and in the experiment on MALME-3M melanoma was over 100 µM throughout. Moreover, the TGI with NCI-H226 lung, in the experiment with OVCAR-4 ovarian, with RPMI-8226 leukemia and in the experiment on U251 CNS was over 100 µM in each case.

For the origin of these results see PubChem BioAssay (NCI).
